{"source": "patent US11576865B2", "about": "“Sustained-release dosage forms of ruxolitinib” (Incyte Corporation, priority 2012, dated 2023)", "key": {"[1]": {"tested_on": "patients with myelofibrosis (MF)", "test": "Phase 2 sustained-release clinical trial, haematology and adverse events", "details": "human, in vivo, 16 weeks", "method": "A Phase 2 clinical trial was carried out in patients with myelofibrosis (MF). A total of 41 subjects were enrolled, and spleen volume and total symptom scores were obtained at baseline. Tablets of sustained-release formulation SR-2 (see Example 1) were administered to fasted patients. All patients were treated with 25 mg once daily doses for 8 weeks. After 8 weeks, depending upon the clinical response, the investigator was allowed to (a) maintain the same dose of SR-2, (b) increase the dose to 50 mg once daily, (c) increase the dose to alternating doses of 25 mg and 50 mg, dosed once daily, or (d) switch to treatment with the immediate release formulation.\nData relating to mean platelet count and mean hemoglobin levels (Hgb) is presented below in Table 3 together with comparative data from the COMFORT-I study. […] Data is shown as mean±SD.\nData for adverse events relating to anemia, thrombocytopenia, neutropenia, and all Grade 3 or higher adverse events are compared for the sustained-release and COMFORT-I (immediate-release) studies (see Example 3 and Comparative Example A for descriptions of the studies) in Table 6a. Adverse events are graded according to CTCAE criteria which can be found online at ctep.cancer.gov/protocolDevelopment/electronic_applications/ctc.htm or evs.nci.nih.gov/ftp1/CTCAE/CTCAE_4.03_2010-06-14_QuickReference_5×7.pdf. A Grade 3 adverse event generally corresponds to a reaction that is severe or medically significant, but not immediately life-threatening where hospitalization or prolongation of hospitalization is indicated and where the reaction is disabling to the extent of limiting self care. Higher Grades are 4 (life-threatening requiring urgent intervention) and 5 (death). For anemia, Grade 3 corresponds to Hgb<8.0 g/dL; <4.9 mmol/L; <80 g/L, where a transfusion is indicated. For thrombocytopenia (decreased platelet count), Grade 3 corresponds to <50,000-25,000/mm^3; <50.0-25.0×10^9/L. The sustained-release data was evaluated for patients over the course of 16 weeks. Mean duration of exposure to ruxolitinib in the COMFORT-I was approximately 242 days. Typically, the majority of hematologic adverse events occur within the first few months of therapy as observed in the COMFORT-I study.\nThe sustained-release data was evaluated for patients over the course of 16 weeks. Mean duration of exposure to ruxolitinib in the COMFORT-I study was approximately 242 days. The vast majority of hematologic adverse events occur within the first few months of therapy as observed in the COMFORT-I study. […] Additionally, the severity of the adverse events is lesser in the sustained-release study."}, "[2]": {"tested_on": "patients with intermediate-2 or high risk myelofibrosis", "details": "cited from earlier work"}, "Myelofibrosis patients": {"tested_on": "Myelofibrosis patients", "details": "COMFORT-II, 48 weeks (primary end point); cited from earlier work"}, "[3]": {"details": "COMFORT I immediate-release, n 129"}, "[4]": {"details": "COMFORT I immediate-release, n 139"}, "[5]": {"details": "COMFORT I immediate-release, n 140"}, "[6]": {"details": "COMFORT I immediate-release, n 148"}}}
{"smiles": "N#CC[C@H](C1CCCC1)n1cc(-c2ncnc3[nH]ccc23)cn1", "note": "[Ruxolitinib, (3R)-3-cyclopentyl-3-[4-(7H-pyrrolo[2,3-d]pyrimidin-4-yl)pyrazol-1-yl]propanenitrile]", "values": [{"measurement": "% of Subjects With Any Adverse Events, Any severity", "setting": "[1]", "value": "(78.0) %"}, {"measurement": "% of Subjects with Anaemia, Any severity", "setting": "[1]", "value": "(4.9) %"}, {"measurement": "% of Subjects with Blood and lymphatic system disorders, Any severity", "setting": "[1]", "value": "(19.5) %"}, {"measurement": "% of Subjects with Thrombocytopenia, Any severity", "setting": "[1]", "value": "(14.6) %"}, {"measurement": "Number of Subjects With Any Adverse Events, Any severity", "setting": "[1]", "value": 32}, {"measurement": "Number of Subjects With Any Adverse Events, LT (life threatening)", "setting": "[1]", "value": 0}, {"measurement": "Number of Subjects With Any Adverse Events, Mi (mild)", "setting": "[1]", "value": 16}, {"measurement": "Number of Subjects With Any Adverse Events, Mo (moderate)", "setting": "[1]", "value": 9}, {"measurement": "Number of Subjects With Any Adverse Events, Se (severe)", "setting": "[1]", "value": 7}, {"measurement": "Number of Subjects with Anaemia, Any severity", "setting": "[1]", "value": 2}, {"measurement": "Number of Subjects with Anaemia, LT (life threatening)", "setting": "[1]", "value": 0}, {"measurement": "Number of Subjects with Anaemia, Mi (mild)", "setting": "[1]", "value": 0}, {"measurement": "Number of Subjects with Anaemia, Mo (moderate)", "setting": "[1]", "value": 2}, {"measurement": "Number of Subjects with Anaemia, Se (severe)", "setting": "[1]", "value": 0}, {"measurement": "Number of Subjects with Blood and lymphatic system disorders, Any severity", "setting": "[1]", "value": 8}, {"measurement": "Number of Subjects with Blood and lymphatic system disorders, LT (life threatening)", "setting": "[1]", "value": 0}, {"measurement": "Number of Subjects with Blood and lymphatic system disorders, Mi (mild)", "setting": "[1]", "value": 3}, {"measurement": "Number of Subjects with Blood and lymphatic system disorders, Mo (moderate)", "setting": "[1]", "value": 4}, {"measurement": "Number of Subjects with Blood and lymphatic system disorders, Se (severe)", "setting": "[1]", "value": 1}, {"measurement": "Number of Subjects with Thrombocytopenia, Any severity", "setting": "[1]", "value": 6}, {"measurement": "Number of Subjects with Thrombocytopenia, LT (life threatening)", "setting": "[1]", "value": 0}, {"measurement": "Number of Subjects with Thrombocytopenia, Mi (mild)", "setting": "[1]", "value": 3}, {"measurement": "Number of Subjects with Thrombocytopenia, Mo (moderate)", "setting": "[1]", "value": 2}, {"measurement": "Number of Subjects with Thrombocytopenia, Se (severe)", "setting": "[1]", "value": 1}, {"measurement": "Total Symptom Score, Percent Change from Baseline To Week 24, Max", "setting": "[2]; [3]", "value": 108.3}, {"measurement": "Total Symptom Score, Percent Change from Baseline To Week 24, Mean", "setting": "[2]; [3]", "value": "−46.1"}, {"measurement": "Total Symptom Score, Percent Change from Baseline To Week 24, Median", "setting": "[2]; [3]", "value": "−56.2"}, {"measurement": "Total Symptom Score, Percent Change from Baseline To Week 24, Min", "setting": "[2]; [3]", "value": "−100.0"}, {"measurement": "Spleen Volume, Percent Change from Baseline To Week 24, Max", "setting": "[2]; [4]", "value": 25.1, "unit": "%"}, {"measurement": "Spleen Volume, Percent Change from Baseline To Week 24, Mean", "setting": "[2]; [4]", "value": "−31.6", "unit": "%"}, {"measurement": "Spleen Volume, Percent Change from Baseline To Week 24, Median", "setting": "[2]; [4]", "value": "−33.0", "unit": "%"}, {"measurement": "Spleen Volume, Percent Change from Baseline To Week 24, Min", "setting": "[2]; [4]", "value": "−75.9", "unit": "%"}, {"measurement": "Total Symptom Score, Percent Change from Baseline To Week 16, Max", "setting": "[2]; [5]", "value": 292.5}, {"measurement": "Total Symptom Score, Percent Change from Baseline To Week 16, Mean", "setting": "[2]; [5]", "value": "−40.5"}, {"measurement": "Total Symptom Score, Percent Change from Baseline To Week 16, Median", "setting": "[2]; [5]", "value": "−51.1"}, {"measurement": "Total Symptom Score, Percent Change from Baseline To Week 16, Min", "setting": "[2]; [5]", "value": "−100.0"}, {"measurement": "Spleen Volume, Percent Change from Baseline To Week 12, Max", "setting": "[2]; [6]", "value": 3.8, "unit": "%"}, {"measurement": "Spleen Volume, Percent Change from Baseline To Week 12, Mean", "setting": "[2]; [6]", "value": "−32.0", "unit": "%"}, {"measurement": "Spleen Volume, Percent Change from Baseline To Week 12, Median", "setting": "[2]; [6]", "value": "−31.7", "unit": "%"}, {"measurement": "Spleen Volume, Percent Change from Baseline To Week 12, Min", "setting": "[2]; [6]", "value": "−74.4", "unit": "%"}, {"measurement": "proportion of patients with a reduction of 50% or more in the total symptom score", "setting": "[2]; COMFORT-I, baseline to week 24", "value": 45.9, "unit": "%"}, {"measurement": "proportion of patients with a reduction of 35% or more in spleen volume", "setting": "[2]; COMFORT-I, week 24 (primary end point)", "value": 41.9, "unit": "%"}, {"measurement": "patients with at least a 35% reduction in spleen volume from baseline", "setting": "Myelofibrosis patients", "value": 28, "unit": "%"}]}
